Test system: P. yoelii strain YM
Test: P. yoelii strain YM infection in mice, parasitemia and mortality (Example 16)
Assay type: in vivo, BALB/c mice
Conditions: Table 16.11; D + 6; i.p. 20 mg/kg twice daily, 3 h after infection, D + 1 to D + 5

Compound	% parasitemia (mean ± SEM) [%]
C=CCOc1ccc(C(=O)/C=C/c2ccc(OC)cc2OC)cc1 [2,4-Dimethoxy-4′-allyloxychalcone, 2,4-dimethoxy-4′-prop-2-enyloxychalcone]	0.4 ± 0.2
COc1ccc(/C=C/C(=O)c2ccc(O)cc2)c(OC)c1 [2,4-Dimethoxy-4′-hydroxychalcone, 2,4-dimethoxy-4′-hydroxychalcone]	4.8 ± 1.5

Same assay, conditions: Table 16.11; D + 6; i.p. 30 mg/kg twice daily, 3 h after infection, D + 1 to D + 5

Compound	% parasitemia (mean ± SEM) [%]
C=CCOc1ccc(C(=O)/C=C/c2ccc(OC)cc2OC)cc1 [2,4-Dimethoxy-4′-allyloxychalcone, 2,4-dimethoxy-4′-prop-2-enyloxychalcone]	37.4 ± 0.9
COc1ccc(/C=C/C(=O)c2ccc(O)cc2)c(OC)c1 [2,4-Dimethoxy-4′-hydroxychalcone, 2,4-dimethoxy-4′-hydroxychalcone]	46.4 ± 2.1

Same assay, conditions: Table 16.11; D + 6; i.p. 40 mg/kg twice daily to D + 5

Compound	mortality (no. of dead mice/total no. of tested mice)
COc1ccc(/C=C/C(=O)c2ccc(O)cc2)c(OC)c1 [2,4-Dimethoxy-4′-hydroxychalcone, 2,4-dimethoxy-4′-hydroxychalcone]	(5/5)

Same assay, conditions: Table 16.11; D + 6; i.p. 40 mg/kg twice daily, 3 h after infection, D + 1 to D + 5

Compound	% parasitemia (mean ± SEM) [%]
C=CCOc1ccc(C(=O)/C=C/c2ccc(OC)cc2OC)cc1 [2,4-Dimethoxy-4′-allyloxychalcone, 2,4-dimethoxy-4′-prop-2-enyloxychalcone]	55.8 ± 1.5

Same assay, conditions: Table 16.11; D + 8; i.p. 20 mg/kg twice daily, 3 h after infection, D + 1 to D + 5

Compound	% parasitemia (mean ± SEM) [%]
C=CCOc1ccc(C(=O)/C=C/c2ccc(OC)cc2OC)cc1 [2,4-Dimethoxy-4′-allyloxychalcone, 2,4-dimethoxy-4′-prop-2-enyloxychalcone]	0.8 ± 0.2
COc1ccc(/C=C/C(=O)c2ccc(O)cc2)c(OC)c1 [2,4-Dimethoxy-4′-hydroxychalcone, 2,4-dimethoxy-4′-hydroxychalcone]	12.4 ± 2.4

Same assay, conditions: Table 16.11; D + 8; i.p. 30 mg/kg twice daily to D + 5

Compound	mortality (no. of dead mice/total no. of tested mice)
COc1ccc(/C=C/C(=O)c2ccc(O)cc2)c(OC)c1 [2,4-Dimethoxy-4′-hydroxychalcone, 2,4-dimethoxy-4′-hydroxychalcone]	(1/5)

Same assay, conditions: Table 16.11; D + 8; i.p. 30 mg/kg twice daily, 3 h after infection, D + 1 to D + 5

Compound	% parasitemia (mean ± SEM) [%]
C=CCOc1ccc(C(=O)/C=C/c2ccc(OC)cc2OC)cc1 [2,4-Dimethoxy-4′-allyloxychalcone, 2,4-dimethoxy-4′-prop-2-enyloxychalcone]	67.2 ± 0.9
COc1ccc(/C=C/C(=O)c2ccc(O)cc2)c(OC)c1 [2,4-Dimethoxy-4′-hydroxychalcone, 2,4-dimethoxy-4′-hydroxychalcone]	70.8 ± 3.5

Same assay, conditions: Table 16.11; D + 8; i.p. 40 mg/kg twice daily to D + 5

Compound	mortality (no. of dead mice/total no. of tested mice)
C=CCOc1ccc(C(=O)/C=C/c2ccc(OC)cc2OC)cc1 [2,4-Dimethoxy-4′-allyloxychalcone, 2,4-dimethoxy-4′-prop-2-enyloxychalcone]	(2/5)

Same assay, conditions: Table 16.11; D + 8; i.p. 40 mg/kg twice daily, 3 h after infection, D + 1 to D + 5

Compound	% parasitemia (mean ± SEM) [%]
C=CCOc1ccc(C(=O)/C=C/c2ccc(OC)cc2OC)cc1 [2,4-Dimethoxy-4′-allyloxychalcone, 2,4-dimethoxy-4′-prop-2-enyloxychalcone]	83 ± 2.1

Same assay, conditions: Table 16.11; D + 10; i.p. 20 mg/kg twice daily, 3 h after infection, D + 1 to D + 5

Compound	% parasitemia (mean ± SEM) [%]
C=CCOc1ccc(C(=O)/C=C/c2ccc(OC)cc2OC)cc1 [2,4-Dimethoxy-4′-allyloxychalcone, 2,4-dimethoxy-4′-prop-2-enyloxychalcone]	14.3 ± 4.0
COc1ccc(/C=C/C(=O)c2ccc(O)cc2)c(OC)c1 [2,4-Dimethoxy-4′-hydroxychalcone, 2,4-dimethoxy-4′-hydroxychalcone]	58.6 ± 14

Same assay, conditions: Table 16.11; D + 10; i.p. 30 mg/kg twice daily to D + 5

Compound	mortality (no. of dead mice/total no. of tested mice)
C=CCOc1ccc(C(=O)/C=C/c2ccc(OC)cc2OC)cc1 [2,4-Dimethoxy-4′-allyloxychalcone, 2,4-dimethoxy-4′-prop-2-enyloxychalcone]	(5/5)
COc1ccc(/C=C/C(=O)c2ccc(O)cc2)c(OC)c1 [2,4-Dimethoxy-4′-hydroxychalcone, 2,4-dimethoxy-4′-hydroxychalcone]	(5/5)

Same assay, conditions: Table 16.11; D + 10; i.p. 40 mg/kg twice daily to D + 5

Compound	mortality (no. of dead mice/total no. of tested mice)
C=CCOc1ccc(C(=O)/C=C/c2ccc(OC)cc2OC)cc1 [2,4-Dimethoxy-4′-allyloxychalcone, 2,4-dimethoxy-4′-prop-2-enyloxychalcone]	(5/5)

Same assay, conditions: Table 16.11; D + 12; i.p. 20 mg/kg twice daily to D + 5

Compound	mortality (no. of dead mice/total no. of tested mice)
COc1ccc(/C=C/C(=O)c2ccc(O)cc2)c(OC)c1 [2,4-Dimethoxy-4′-hydroxychalcone, 2,4-dimethoxy-4′-hydroxychalcone]	3/5

Same assay, conditions: Table 16.11; D + 12; i.p. 20 mg/kg twice daily, 3 h after infection, D + 1 to D + 5

Compound	% parasitemia (mean ± SEM) [%]
C=CCOc1ccc(C(=O)/C=C/c2ccc(OC)cc2OC)cc1 [2,4-Dimethoxy-4′-allyloxychalcone, 2,4-dimethoxy-4′-prop-2-enyloxychalcone]	32.4 ± 4.0
COc1ccc(/C=C/C(=O)c2ccc(O)cc2)c(OC)c1 [2,4-Dimethoxy-4′-hydroxychalcone, 2,4-dimethoxy-4′-hydroxychalcone]	25

Same assay, conditions: Table 16.11; D + 14; i.p. 20 mg/kg twice daily to D + 5

Compound	mortality (no. of dead mice/total no. of tested mice)
C=CCOc1ccc(C(=O)/C=C/c2ccc(OC)cc2OC)cc1 [2,4-Dimethoxy-4′-allyloxychalcone, 2,4-dimethoxy-4′-prop-2-enyloxychalcone]	3/5
COc1ccc(/C=C/C(=O)c2ccc(O)cc2)c(OC)c1 [2,4-Dimethoxy-4′-hydroxychalcone, 2,4-dimethoxy-4′-hydroxychalcone]	3/5

Same assay, conditions: Table 16.11; D + 14; i.p. 20 mg/kg twice daily, 3 h after infection, D + 1 to D + 5

Compound	% parasitemia (mean ± SEM) [%]
C=CCOc1ccc(C(=O)/C=C/c2ccc(OC)cc2OC)cc1 [2,4-Dimethoxy-4′-allyloxychalcone, 2,4-dimethoxy-4′-prop-2-enyloxychalcone]	7
COc1ccc(/C=C/C(=O)c2ccc(O)cc2)c(OC)c1 [2,4-Dimethoxy-4′-hydroxychalcone, 2,4-dimethoxy-4′-hydroxychalcone]	6

Same assay, conditions: Table 16.11; D + 16; i.p. 20 mg/kg twice daily to D + 5

Compound	mortality (no. of dead mice/total no. of tested mice)
C=CCOc1ccc(C(=O)/C=C/c2ccc(OC)cc2OC)cc1 [2,4-Dimethoxy-4′-allyloxychalcone, 2,4-dimethoxy-4′-prop-2-enyloxychalcone]	3/5
COc1ccc(/C=C/C(=O)c2ccc(O)cc2)c(OC)c1 [2,4-Dimethoxy-4′-hydroxychalcone, 2,4-dimethoxy-4′-hydroxychalcone]	3/5

Same assay, conditions: Table 16.11; D + 16; i.p. 20 mg/kg twice daily, 3 h after infection, D + 1 to D + 5

Compound	% parasitemia (mean ± SEM) [%]
C=CCOc1ccc(C(=O)/C=C/c2ccc(OC)cc2OC)cc1 [2,4-Dimethoxy-4′-allyloxychalcone, 2,4-dimethoxy-4′-prop-2-enyloxychalcone]	0
COc1ccc(/C=C/C(=O)c2ccc(O)cc2)c(OC)c1 [2,4-Dimethoxy-4′-hydroxychalcone, 2,4-dimethoxy-4′-hydroxychalcone]	0

Test system: chloroquine resistant P. falciparum DD2 strain
Test: In vitro growth of P. falciparum DD2, 3H-hypoxanthine uptake (Example 15)
Assay type: cell-based, Plasmodium falciparum
Conditions: title: percentage inhibition of 3H-hypoxanthine uptake; 0.5 μg/ml

Compound	Growth in % of control (mean ± SEM) [%]
C=CCOc1ccc(C(=O)/C=C/c2ccc(OC)cc2OC)cc1 [2,4-Dimethoxy-4′-allyloxychalcone, 2,4-dimethoxy-4′-prop-2-enyloxychalcone]	29.1 ± 10.8
COc1ccc(/C=C/C(=O)c2ccc(O)cc2)c(OC)c1 [2,4-Dimethoxy-4′-hydroxychalcone, 2,4-dimethoxy-4′-hydroxychalcone]	18.6 ± 7.2

Same assay, conditions: title: percentage inhibition of 3H-hypoxanthine uptake; 1 μg/ml

Compound	Growth in % of control (mean ± SEM) [%]
C=CCOc1ccc(C(=O)/C=C/c2ccc(OC)cc2OC)cc1 [2,4-Dimethoxy-4′-allyloxychalcone, 2,4-dimethoxy-4′-prop-2-enyloxychalcone]	23.6 ± 11.2
COc1ccc(/C=C/C(=O)c2ccc(O)cc2)c(OC)c1 [2,4-Dimethoxy-4′-hydroxychalcone, 2,4-dimethoxy-4′-hydroxychalcone]	21.8 ± 7.3

Same assay, conditions: title: percentage inhibition of 3H-hypoxanthine uptake; 5 μg/ml

Compound	Growth in % of control (mean ± SEM) [%]
C=CCOc1ccc(C(=O)/C=C/c2ccc(OC)cc2OC)cc1 [2,4-Dimethoxy-4′-allyloxychalcone, 2,4-dimethoxy-4′-prop-2-enyloxychalcone]	44.3 ± 10.5
COc1ccc(/C=C/C(=O)c2ccc(O)cc2)c(OC)c1 [2,4-Dimethoxy-4′-hydroxychalcone, 2,4-dimethoxy-4′-hydroxychalcone]	46.8 ± 6.6

Same assay, conditions: title: percentage inhibition of 3H-hypoxanthine uptake; 10 μg/ml

Compound	Growth in % of control (mean ± SEM) [%]
C=CCOc1ccc(C(=O)/C=C/c2ccc(OC)cc2OC)cc1 [2,4-Dimethoxy-4′-allyloxychalcone, 2,4-dimethoxy-4′-prop-2-enyloxychalcone]	75.2 ± 7.8
COc1ccc(/C=C/C(=O)c2ccc(O)cc2)c(OC)c1 [2,4-Dimethoxy-4′-hydroxychalcone, 2,4-dimethoxy-4′-hydroxychalcone]	68.0 ± 4.7

Reference: patent publication US6603046B1, “Bis-aromatic a,β-unsaturated ketones” (Lica Pharmaceuticals A/S, priority 1992, dated 2003)
